Experiment [1] deals with T1, human GCS (Homo sapiens, UniProt Q16739).
T1 sequence (Q16739 1-394): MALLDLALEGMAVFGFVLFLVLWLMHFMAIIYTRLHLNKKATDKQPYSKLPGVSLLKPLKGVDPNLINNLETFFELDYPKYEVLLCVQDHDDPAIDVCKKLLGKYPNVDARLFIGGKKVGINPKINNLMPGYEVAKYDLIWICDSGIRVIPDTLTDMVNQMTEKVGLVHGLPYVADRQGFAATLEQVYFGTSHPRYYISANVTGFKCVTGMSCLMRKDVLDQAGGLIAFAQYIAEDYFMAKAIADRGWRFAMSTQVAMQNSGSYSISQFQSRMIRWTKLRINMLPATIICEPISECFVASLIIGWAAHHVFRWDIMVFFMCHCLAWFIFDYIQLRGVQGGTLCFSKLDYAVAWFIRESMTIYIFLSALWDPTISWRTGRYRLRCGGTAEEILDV
The experiment in a line: Inhibition of GCS (human recombinant GCS expressed in insect cells). The arrangement: made in house; host or cells: insect cells. In kind it is biochemical.

Experiment [2] addresses T2, non-lysosomal-β-glucocerebrosidase (Homo sapiens, UniProt Q9HCG7).
T2 construct: endogenous in cells; host or cells: MCF7 whole cell extracts
T2 sequence (Q9HCG7 1-927): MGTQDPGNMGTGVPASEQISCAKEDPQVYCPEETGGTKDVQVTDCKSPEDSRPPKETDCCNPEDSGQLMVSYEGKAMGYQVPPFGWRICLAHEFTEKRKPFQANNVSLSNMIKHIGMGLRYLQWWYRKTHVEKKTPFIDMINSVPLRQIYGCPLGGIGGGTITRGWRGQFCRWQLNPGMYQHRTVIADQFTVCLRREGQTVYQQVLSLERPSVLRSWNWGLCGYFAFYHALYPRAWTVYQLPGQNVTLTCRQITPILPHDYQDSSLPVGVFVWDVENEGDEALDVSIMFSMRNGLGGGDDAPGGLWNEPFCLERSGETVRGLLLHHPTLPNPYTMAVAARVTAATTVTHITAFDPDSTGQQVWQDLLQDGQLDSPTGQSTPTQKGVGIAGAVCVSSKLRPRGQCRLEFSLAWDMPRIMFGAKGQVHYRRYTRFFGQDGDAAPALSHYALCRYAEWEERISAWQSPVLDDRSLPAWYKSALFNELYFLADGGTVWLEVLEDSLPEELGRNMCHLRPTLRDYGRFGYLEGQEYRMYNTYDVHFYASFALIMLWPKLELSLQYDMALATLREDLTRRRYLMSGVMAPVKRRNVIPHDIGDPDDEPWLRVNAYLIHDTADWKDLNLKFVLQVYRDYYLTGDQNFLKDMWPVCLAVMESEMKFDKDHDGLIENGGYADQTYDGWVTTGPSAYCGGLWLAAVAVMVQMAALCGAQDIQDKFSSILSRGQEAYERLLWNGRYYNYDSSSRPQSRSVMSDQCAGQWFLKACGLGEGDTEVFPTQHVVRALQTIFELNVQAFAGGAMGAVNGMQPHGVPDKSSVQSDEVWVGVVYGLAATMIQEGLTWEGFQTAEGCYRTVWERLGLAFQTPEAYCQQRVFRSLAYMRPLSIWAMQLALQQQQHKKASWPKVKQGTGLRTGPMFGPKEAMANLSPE
In words: Inhibition of non-lysosomal-β-glucocerebrosidase (whole cell extracts of MCF7). In kind it is biochemical. The procedure: The assay for inhibition of non-lysosomal-β-glucocerebrosidase was essentially carried out as described in Overkleeft, H. S. et al., J. Biol. Chem., (1998) 273, 26522-26527 with the following differences: whole cell extracts of MCF7 (a human breast carcinoma cell line) was used as the source of the enzyme instead of splenic membrane suspensions; 5mM instead of 3Mm, 4-MU β-glucoside was used as substrate and 0.2M citrate/phosphate (pH 5.8) was used instead of McIlvaine buffer.

Experiment [3] addresses T1, human GCS. In words: Cell-based IC50 for GCS inhibition by measuring glucosylceramide (GlcCer) depletion in MCF-7 cells. As to conditions: MCF-7 cells cultured 5-7 days; GlcCer depletion by HPTLC; read-out: Inhibition of GCS Cellular-based (IC50 μM).
The test system of the next experiment is glycolipid biosynthesis. The following applies: as disclosed in EP-A-0698012; cited from earlier work.

What is called IC50 is the midpoint of a concentration-inhibition curve.

Where two headings read alike, the source gives them in different places. Where only a bound is given, the exact number is not on record here.

Regarding `O=C(NCc1ccc(F)cc1)c1ccc(CN2C[C@H](O)[C@@H](O)[C@@H](O)[C@@H]2CO)cc1` [Example 1, Benzamide, N-[(4-fluorophenyl)methyl]4-[[(2S,3S,4R,5S)-3,4,5-trihydroxy-2-(hydroxymethyl)-1-piperidinyl]methyl]-,], at human GCS [1], the IC50 is 2.2 µM.
On to `OC[C@H]1[C@H](O)[C@H](O)[C@@H](O)CN1Cc1ccc(OCc2ccccc2)cc1` [Example 2, 3,4,5-Piperidinetriol, 2-(hydroxymethyl)-1-[[4-(phenylmethoxy)phenyl]methyl]-, (2S,3S,4R,5S)], for which the IC50 is 9.4 µM in experiment [2], < 0.1 µM at human GCS [3] and 0.66 µM at human GCS [1].
Regarding `C[C@H](NC(=O)c1ccc(CN2C[C@H](O)[C@@H](O)[C@@H](O)[C@@H]2CO)cc1)c1ccccc1` [Example 3, Benzamide, N-[1-(S)-(phenyl)ethyl]-4-[[(2S,3S,4R,5S)-3,4,5-trihydroxy-2-(hydroxymethyl)-1-piperidinyl]methyl]-,], the IC50 in experiment [2] is 14.9 µM; at human GCS [1], 7.2 µM.
Regarding `CCCN(CCC)c1ccc(CN2C[C@H](O)[C@@H](O)[C@@H](O)[C@@H]2CO)cc1C#N` [Example 4, 3,4,5-Piperidinetriol, 1-[(3-cyano-4-(dipropylamino)phenyl)methyl]-2-(hydroxymethyl), (2S,3S,4R,5S)], the IC50 was determined as 1.93 µM in experiment [2] (MCF7 whole cell extract, 5mM 4-MU β-glucoside, citrate/phosphate pH 5.8, read-out: Inhibition of non-lysosomal-β-glucocerebrosidase (IC50 μM)) and 0.62 µM at human GCS [1].
Regarding `C[C@@H](NC(=O)c1ccc(CN2C[C@H](O)[C@@H](O)[C@@H](O)[C@@H]2CO)cc1)c1ccccc1` [Example 6, Benzamide, N-[1-(R)-(phenyl)ethyl]4-[[(2S,3S,4R,5S)-3,4,5-trihydroxy-2-(hydroxymethyl)-1-piperidinyl]methyl]-,], at human GCS [3], the half-maximal inhibitory concentration (IC50) is 1 µM.
As for `C[C@@H](NC(=O)c1ccc(CN2C[C@H](O)[C@@H](O)[C@@H](O)[C@@H]2CO)cc1)c1ccc(F)cc1` [Example 7, Benzamide, N-[1-(R)-(4-fluorophenyl)ethyl]-4-[[(2S,3S,4R,5S)-3,4,5-trihydroxy-2-(hydroxymethyl)-1-piperidinyl]methyl]-,], the IC50 in experiment [2] was > 100 µM; at human GCS [1] it was 4.7 µM.
Turning to `CCCCN1C[C@@H](O)[C@H](O)[C@H](O)[C@@H]1C` [NB-DFJ], in the experiment on glycolipid biosynthesis, the “Inhibition of glycolipid biosynthesis” value is reported as “do not act as inhibitors of glycolipid biosynthesis”.
Turning to `CCCCN1C[C@@H](O)[C@@H](O)[C@H](O)[C@H]1CO` [NB-DMJ], the “Inhibition of glycolipid biosynthesis” value with glycolipid biosynthesis is “do not act as inhibitors of glycolipid biosynthesis”.
In the case of `CCCCN1C[C@H](NC(C)=O)[C@@H](O)[C@H](O)[C@H]1CO` [NB-NAG], in the experiment on glycolipid biosynthesis, the “Inhibition of glycolipid biosynthesis” value is reported as “do not act as inhibitors of glycolipid biosynthesis”.

These data come from patent publication US7994198B2, “Piperidinetriol derivatives as inhibitors of glycosylceramidsynthase” (Actelion Pharmaceuticals Ltd., priority 2002, dated 2011).
